As a reminder, the IC50 is the point on the concentration scale where inhibition reaches its midpoint.

The subject of data set [1] is various breast cancer cells. The following applies: various breast cancer cells in vitro; cited from earlier work.
Data set [2] deals with triple-negative breast cancer. The following applies: mouse model of triple-negative breast cancer, 250 mg/kg; cited from earlier work.
The next data set is described as follows: Solubility in water. It is filed as physicochemical. To be noted: data not shown.
The nature of data set [3]: Kinetic solubility study of metformin salts in lipid excipients. To be noted: for solubility in lipid vehicles: Miglyol 812N and Capryol 90 (text statement for both); for solubility (mg/g) of lipid excipient: medium-chain triglyceride (Miglyol 812N), kinetic solubility, visual inspection.
For data set [4] the following is noted: cited from earlier work.
Data set [5] relates to MYCN-2 and SK-N-Be2c neuroblastoma cells. In words: In vitro cytotoxicity, SRB assay, statements spanning both neuroblastoma lines. It is filed as cell-based, human. To be noted: MYCN-2 and SK-N-Be2c cells.
In another data set the test system is MYCN-2 cells. Nature of the data set: In vitro cytotoxicity, SRB assay, MYCN-2 cells. To be noted: Homo sapiens, read-out: IC50, cytotoxicity (MYCN). In kind it is cell-based.
A further data set has as its system cancer cells. To be noted: read-out: IC50, anticancer activity; cited from earlier work.
The next data set has as its system SK-N-Be2c cells. In words: In vitro cytotoxicity, SRB assay, SK-N-Be2c cells. In kind it is cell-based. To be noted: Homo sapiens, SK-N-BE(2)-C, read-out: IC50, cytotoxicity (Be2c). On the technique in general: In SRB staining, fixed cells bind dye roughly in proportion to their protein.

Counter-ions that a name gives are not always drawn.

Take `CCCC(=O)O.CN(C)C(=N)N=C(N)N` [metformin butyrate]: the “improvement of the potency of metformin” value in [1] is given as 2- to 10 fold. Besides, the “anticancer activity versus metformin” value in data set [2] is listed as “significantly higher anticancer activity than metformin”.

As to `CN(C)C(=N)NC(=N)N.C[C@H](CCC(=O)O)[C@H]1CC[C@H]2[C@@H]3[C@H](O)C[C@@H]4C[C@H](O)CC[C@]4(C)[C@H]3C[C@H](O)[C@]12C` [metformin cholate, Metformin Cholate], the water solubility in “Solubility in water” is over 1 mg/mL. In addition, in data set [3], the “solubility in lipid vehicles” value is under 5 mg/g and the “solubility (mg/g) of lipid excipient” value is under 5 mg/g.

As to `CCCCC(CC)COC(=O)CC(C(=O)OCC(CC)CCCC)S(=O)(=O)O.CN(C)C(=N)N=C(N)N` (stereo not drawn) [metformin docusate, Metformin Docusate], in [3], the “solubility in lipid vehicles” value was over 200 mg/g and the “solubility (mg/g) of lipid excipient” value was over 200 mg/g. Also, the “solubility in medium-chain triglycerides and propylene glycol fatty acid esters” value in [4] is recorded as over 75 mg/g. Further, in [5], the “improvement in anticancer potency (lower IC50) compared to metformin hydrochloride” value is 700- to 4300 fold.

Regarding `CN(C)C(=N)NC(=N)N.NCC1(CC(=O)O)CCCCC1` [metformin gabapentin salt], the “improvement of the potency of metformin” value in data set [1] is recorded as 2- to 10 fold.

Take `CN(C)C(=N)NC(=N)N.NCCCC(=O)O` [metformin gamma-aminobutyric acid salt]: in [1], the “improvement of the potency of metformin” value is 2- to 10 fold.

`CN(C)C(=N)N=C(N)N` [metformin hydrochloride, Metformin hydrochloride]: the IC50 with MYCN-2 cells is over 100 mM; with cancer cells it was over 1 mM; in the data set with SK-N-Be2c cells, over 100 mM.

As to `CC(C)C[C@H](CN)CC(=O)O.CN(C)C(=N)NC(=N)N` [metformin pregabalin salt], the “improvement of the potency of metformin” value in data set [1] is 2- to 10 fold.

The record behind these values is publication PMC7859945 (ACS Omega, 2021).
